According to ChEMBL document CHEMBL6078618, “Exploring quinoxaline derivatives: An overview of a new approach to combat antimicrobial resistance” (Eur J Med Chem, 2024):
In brackets after ≈: the same amount, converted by molar mass.

Experiments:
Rhizoctonia solani = experiment: Antifungal activity against Rhizoctonia solani; assay type: functional, organism-based
Escherichia coli [1] = experiment: Antibacterial activity against Escherichia coli E38 assessed as reduction in bacterial growth by measuring minimum bactericidal concentration incubated for 16 to 20 hrs by serial dilution method; assay type: functional; details: time 16-20 hrs
Escherichia coli [2] = experiment: Antimicrobial activity against Escherichia coli NCIM 2065 assessed as zone of inhibition incubated for 24 hrs by agar diffusion method; assay type: functional
Bacillus pumilus = experiment: Antimicrobial activity against Bacillus pumilus; assay type: functional
Escherichia coli [3] = experiment: Antibacterial activity against Escherichia coli ATCC 25922 assessed as reduction in bacterial growth by broth microdilution method; assay type: functional
Candida albicans [4] = experiment: Antifungal activity against Candida albicans assessed as reduction in microbial growth; assay type: functional
Fusarium oxysporum = experiment: Antifungal activity against Fusarium oxysporum; assay type: functional
Staphylococcus aureus [5] = experiment: Antibacterial activity against Staphylococcus aureus ATCC 25923 assessed as reduction in bacterial growth incubated for 24 hrs by serial dilution method; assay type: functional
MCF7 = experiment: Anticancer activity against human MCF7 cells assessed as reduction in cell growth; assay type: functional, cell-based
Pseudomonas aeruginosa = experiment: Antibacterial activity against Pseudomonas aeruginosa ATCC 27853 assessed as inhibition of bacterial growth; assay type: functional
Micrococcus luteus = experiment: Antibacterial activity against Micrococcus luteus assessed as reduction in microbial growth; assay type: functional
Xanthomonas axonopodis = experiment: Antimicrobial activity against Xanthomonas axonopodis; assay type: functional, organism-based
Staphylococcus aureus [6] = experiment: Antibacterial activity against Staphylococcus aureus; assay type: functional
Nakaseomyces glabratus = experiment: Antifungal activity against Candida glabrata; assay type: functional
Pichia kudriavzevii = experiment: Antifungal activity against Candida krusei; assay type: functional
Candida tropicalis = experiment: Antifungal activity against Candida tropicalis; assay type: functional
Candida albicans [7] = experiment: Antifungal activity against Candida albicans; assay type: functional

S=c1[nH]nc(NCNc2n[nH]c(=S)s2)s1
EC50 (Rhizoctonia solani): 295 µg/mL (≈ 1060 µM)

Nc1ccc(Sc2nc3ccccc3nc2Cl)cc1
MBC (Escherichia coli [1]): 2.5 µg/mL (≈ 8.69 µM)
inhibition zone (IZ) (Escherichia coli [2]): 15 mm

Nc1ccc(Sc2nc3ccccc3nc2Sc2ccc(N)cc2)cc1
MIC (Bacillus pumilus): 2.5 µg/mL (≈ 6.64 µM)
MIC (Escherichia coli [3]): 2.5 µg/mL (≈ 6.64 µM)

N#Cc1ccc(COC(=O)c2ccc(Oc3cnc4cc(Cl)ccc4n3)cc2)cc1
EC50 (Rhizoctonia solani): 12 µg/mL (≈ 28.9 µM)

O=C(O)c1cccc(Sc2nc3ccccc3nc2Sc2cccc(C(=O)O)c2)c1
MIC (Escherichia coli [3]): 2.5 µg/mL (≈ 5.75 µM)

NNC1=NNc2nc3ccc(S(=O)(=O)N4CCOCC4)cc3nc2S1
MIC (Candida albicans [4]): 3.9 µg/mL
MIC (Fusarium oxysporum): 15.6 µg/mL (≈ 40.9 µM)
MIC (Staphylococcus aureus [5]): 1.92 µg/mL (≈ 5.03 µM)

COc1ccc(OC)c(/C=C/c2nc3ccccc3nc2Nc2ccc(C(=O)O)cc2)c1
IC50 (MCF7): 10 µM

CCNc1nc2ccccc2nc1C(=O)c1cnc(-c2ccccc2)o1
MIC (Pseudomonas aeruginosa): 31.2 µg/mL (≈ 90.7 µM)
MIC (Micrococcus luteus): 62.5 µg/mL

COc1ccc(Sc2nc3ccccc3nc2Sc2ccc(OC)cc2)cc1
MIC (Bacillus pumilus): 5 µg/mL (≈ 12.3 µM)
MIC (Escherichia coli [3]): 2.5 µg/mL (≈ 6.15 µM)

O=S(=O)(c1ccc2nc(Cl)c(Cl)nc2c1)N1CCOCC1
MIC (Staphylococcus aureus [5]): 1.92 µg/mL (≈ 5.51 µM)

O=C(/C=C/c1ccccn1)c1ccc(Oc2cnc3ccccc3n2)cc1
EC50 (Xanthomonas axonopodis): 62.3 µM

O=[N+]([O-])c1ccc(Sc2nc3ccccc3nc2Sc2ccc([N+](=O)[O-])cc2)cc1
MIC (Escherichia coli [3]): 2.5 µg/mL (≈ 5.73 µM)

O=C(c1cnc(-c2ccc(Cl)cc2)o1)c1nc2ccccc2nc1N1CCOCC1
MIC (Pseudomonas aeruginosa): 31.2 µg/mL (≈ 74.3 µM)
MIC (Micrococcus luteus): 62.5 µg/mL
EC50 (Xanthomonas axonopodis): 44.3 µM

C/C(=N/Nc1nc2nc3cc(S(=O)(=O)N4CCOCC4)ccc3nc2s1)c1ccc(Br)cc1
MIC (Staphylococcus aureus [5]): 1.92 µg/mL (≈ 3.51 µM)

N#Cc1ccc(/C=C/c2nc3ccccc3nc2Nc2ccc(C(=O)O)cc2)cc1
MIC (Staphylococcus aureus [6]): 13.3 µM (≈ 5.22 µg/mL)

CCc1nc2ccc(-c3nnc(SCC(=O)c4ccc([N+](=O)[O-])cc4)n3CC)cc2nc1CC
MIC90 (Nakaseomyces glabratus): 2 µg/mL (≈ 4.2 µM)
MIC90 (Pichia kudriavzevii): 2 µg/mL (≈ 4.2 µM)
MIC90 (Candida tropicalis): 4 µg/mL (≈ 8.39 µM)
MIC90 (Candida albicans [7]): 4 µg/mL (≈ 8.39 µM)

O=C(O)c1ccc(Nc2nc3ccccc3nc2/C=C/c2ccc(O)cc2)cc1
IC50 (MCF7): 7 µM

COc1ccc(Sc2nc3ccccc3nc2Cl)cc1
MBC (Escherichia coli [1]): 2.5 µg/mL (≈ 8.26 µM)
inhibition zone (IZ) (Escherichia coli [2]): 13 mm

Cc1cc(O)n(C2=NNc3nc4ccc(S(=O)(=O)N5CCOCC5)cc4nc3S2)n1
MIC (Candida albicans [4]): 3.9 µg/mL
MIC (Fusarium oxysporum): 15.6 µg/mL (≈ 34.9 µM)
MIC (Staphylococcus aureus [5]): 1.92 µg/mL (≈ 4.29 µM)

CCCNc1nc2ccccc2nc1C(=O)c1cnc(-c2ccc(Cl)cc2)o1
MIC (Pseudomonas aeruginosa): 31.2 µg/mL (≈ 79.5 µM)
MIC (Micrococcus luteus): 62.5 µg/mL
EC50 (Xanthomonas axonopodis): 42.4 µM

Cc1cc(C)cc(Sc2nc3ccccc3nc2Cl)c1
MBC (Escherichia coli [1]): 2.5 µg/mL (≈ 8.31 µM)
inhibition zone (IZ) (Escherichia coli [2]): 11 mm

CNc1nc2ccccc2nc1C(=O)c1cnc(-c2ccccc2)o1
MIC (Pseudomonas aeruginosa): 31.2 µg/mL (≈ 94.6 µM)
MIC (Micrococcus luteus): 62.5 µg/mL

O=C(c1cnc(-c2ccc(Cl)cc2)o1)c1nc2ccccc2nc1NCc1ccccc1
MIC (Pseudomonas aeruginosa): 31.2 µg/mL (≈ 70.9 µM)
MIC (Micrococcus luteus): 62.5 µg/mL
EC50 (Xanthomonas axonopodis): 6.72 µM

CCCNc1nc2ccccc2nc1C(=O)c1cnc(-c2ccccc2)o1
MIC (Pseudomonas aeruginosa): 31.2 µg/mL (≈ 87.2 µM)
MIC (Micrococcus luteus): 62.5 µg/mL

Cc1nnc2n1Nc1nc3ccc(S(=O)(=O)N4CCOCC4)cc3nc1S2
MIC (Staphylococcus aureus [5]): 1.92 µg/mL (≈ 4.74 µM)

N#Cc1ccc(COC(=O)c2ccc(Oc3cnc4ccccc4n3)cc2)cc1
EC50 (Rhizoctonia solani): 8.54 µg/mL (≈ 22.4 µM)

O=C(OCc1ccc(Cl)cc1Cl)c1ccc(Oc2cnc3cc(Cl)ccc3n2)cc1
EC50 (Rhizoctonia solani): 35.2 µg/mL (≈ 76.5 µM)

CO/C=C(/C(=O)OC)c1ccccc1Oc1cc(Oc2ccccc2C#N)ncn1 [AZOXYSTROBIN]
EC50 (Rhizoctonia solani): 26.2 µg/mL (≈ 64.9 µM)

OC(Cn1cncn1)(Cn1cncn1)c1ccc(F)cc1F [FLUCONAZOLE]
MIC90 (Nakaseomyces glabratus): 2 µg/mL (≈ 6.53 µM)
MIC90 (Pichia kudriavzevii): 16 µg/mL (≈ 52.2 µM)
MIC90 (Candida tropicalis): 4 µg/mL (≈ 13.1 µM)
MIC90 (Candida albicans [7]): 0.5 µg/mL (≈ 1.63 µM)
